How the values were obtained:
[1] = target: T1, D2 receptor (Rattus norvegicus, UniProt P61169); assay: [3H]-Spiperone radioligand binding assay, rat striatum membrane homogenate; parameters: species or system Sprague Dawley rats; settings: read-out: Ki ± SD D2
T1 construct: The prefrontal cortex, striatum and hypothalamus were homogenized in about 6 volumes of ice-cold buffer; from tissue; host or cells: rat striatum membrane homogenate

[2] = target: T2, 5HT2A receptor (Rattus norvegicus, UniProt P14842); assay: [3H]-Ketanserine radioligand binding assay, rat prefrontal cortex membrane homogenate; parameters: species or system Sprague Dawley rats; settings: for Ki: read-out: Ki ± SD 5HT2A; for pKi ratio 5HT2A/D2: ratio of pKi at 5HT2A to pKi at D2, rat tissue homogenate
T2 construct: The prefrontal cortex, striatum and hypothalamus were homogenized in about 6 volumes of ice-cold buffer; from tissue; host or cells: rat prefrontal cortex membrane homogenate

[3] = target: T3, H1 receptor (Rattus norvegicus, UniProt P31390); assay: [3H]-Pyrilamine radioligand binding assay, rat hypothalamus membrane homogenate; parameters: species or system Sprague Dawley rats; settings: read-out: Ki ± SD H1
T3 construct: The prefrontal cortex, striatum and hypothalamus were homogenized in about 6 volumes of ice-cold buffer; from tissue; host or cells: rat hypothalamus membrane homogenate

[4] = parameters: method as in PMID 11488257, PMID 22103329; settings: patients treated with these medications; cited from earlier work
[5] = target: D2 receptor; settings: read-out: Ki D2 receptor; cited from earlier work

T1 sequence (P61169 whole entry): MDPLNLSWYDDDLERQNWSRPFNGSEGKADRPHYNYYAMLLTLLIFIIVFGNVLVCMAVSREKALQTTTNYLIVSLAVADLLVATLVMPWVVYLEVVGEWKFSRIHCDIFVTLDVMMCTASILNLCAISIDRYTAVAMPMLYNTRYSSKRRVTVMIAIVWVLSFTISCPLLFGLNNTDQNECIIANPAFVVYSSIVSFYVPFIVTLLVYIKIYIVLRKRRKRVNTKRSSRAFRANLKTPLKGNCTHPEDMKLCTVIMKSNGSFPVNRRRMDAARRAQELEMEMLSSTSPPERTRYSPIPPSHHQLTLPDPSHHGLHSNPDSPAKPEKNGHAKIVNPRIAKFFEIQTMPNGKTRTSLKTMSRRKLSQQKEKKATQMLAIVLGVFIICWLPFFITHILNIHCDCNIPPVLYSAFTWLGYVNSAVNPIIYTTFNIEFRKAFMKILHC
T2 sequence (P14842 whole entry): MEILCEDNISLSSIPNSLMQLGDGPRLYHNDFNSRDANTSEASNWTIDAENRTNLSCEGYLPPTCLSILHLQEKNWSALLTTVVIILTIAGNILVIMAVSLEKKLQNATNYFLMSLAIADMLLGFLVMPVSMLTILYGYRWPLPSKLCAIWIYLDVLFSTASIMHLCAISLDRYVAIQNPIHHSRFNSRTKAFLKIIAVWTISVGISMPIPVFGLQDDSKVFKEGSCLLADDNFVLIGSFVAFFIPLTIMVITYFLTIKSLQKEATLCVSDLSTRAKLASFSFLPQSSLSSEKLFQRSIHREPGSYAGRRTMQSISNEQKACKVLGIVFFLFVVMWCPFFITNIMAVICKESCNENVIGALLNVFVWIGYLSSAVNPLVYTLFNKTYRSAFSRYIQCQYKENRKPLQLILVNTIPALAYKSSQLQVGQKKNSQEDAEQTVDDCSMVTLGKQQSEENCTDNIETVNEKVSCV
T3 sequence (P31390 whole entry): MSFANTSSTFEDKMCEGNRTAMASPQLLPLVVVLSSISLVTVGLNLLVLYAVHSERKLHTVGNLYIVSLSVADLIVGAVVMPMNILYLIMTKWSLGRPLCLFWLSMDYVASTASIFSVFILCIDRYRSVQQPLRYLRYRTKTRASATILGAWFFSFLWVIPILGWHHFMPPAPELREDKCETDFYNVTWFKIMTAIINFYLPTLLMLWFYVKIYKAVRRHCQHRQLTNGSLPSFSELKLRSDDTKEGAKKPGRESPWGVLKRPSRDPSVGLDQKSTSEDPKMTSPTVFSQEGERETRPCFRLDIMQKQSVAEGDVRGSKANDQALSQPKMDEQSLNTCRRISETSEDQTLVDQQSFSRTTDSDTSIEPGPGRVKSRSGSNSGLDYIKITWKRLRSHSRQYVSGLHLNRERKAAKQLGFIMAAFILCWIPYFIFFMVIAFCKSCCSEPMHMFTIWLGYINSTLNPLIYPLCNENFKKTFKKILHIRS

| Compound | Ki [1] | Ki [2] | Ki [3] | pKi ratio 5HT2A/D2 [2] | weight change in treated patients [4] | Ki [5] |
| --- | --- | --- | --- | --- | --- | --- |
| Cc1cc2c(s1)Nc1ccccc1N=C2N1CCCN(C)CC1 [Compound 8a, 2-methyl-4-(4′-methyl-1′,4′-diazepan-1′-yl)-10H-benzo[b]thieno[2,3-e] [1,4]diazepine] | 3940 ± 437 nM | 787 ± 29.8 nM | 33.5 ± 7.39 nM |  |  |  |
| CCc1cc2c(s1)Nc1ccccc1N=C2N1CCCN(C)CC1 [Compound 8b, 2-ethyl-4-(4′-methyl-1′,4′-diazepan-1′-yl)-10H-benzo[b]thieno[2,3-e] [1,4]diazepine] | 791 ± 83.2 nM | 81.2 ± 2.43 nM | 13.6 ± 2.68 nM | 1.16 |  |  |
| CCc1cc2c(s1)Nc1ccccc1N=C2N1CCN(C)CC1 [Compound 8c, 2-ethyl-4-(4′-methylpiperazin-1′-yl)-10Hbenzo[b]thieno[2,3-e][1,4]diazepine] | 54.5 ± 12.1 nM | 3.7 ± 0.74 nM | 1.95 ± 0.33 nM | 1.16 |  |  |
| Clc1ccc2c(c1)C(N1CCNCC1)=Nc1ccccc1O2 [amoxapine] |  |  |  |  | neither weight gain nor weight loss |  |
| CN1CCN(C2=Nc3ccccc3Oc3ccc(Cl)cc32)CC1 [loxapine] |  |  |  |  | neither weight gain nor weight loss |  |
| CCN1CCC[C@H]1CNC(=O)c1c(OC)ccc(Br)c1OC [remoxipride] |  |  |  |  |  | 800 nM |

— publication PMC3485633 (BMC Pharmacology, 2012)
